In patent US20240085403A1, “METHOD FOR INHIBITING ADVENTITIOUS VIRAL INFECTION” (Allogene Therapeutics, Inc., priority 2022, published 2024):

Tests used:
[1] = test system: PBMCs with integrate HHV-6 genomes (iciHHV6); assay type: cell-based, human
Excerpt: (§1) We next examined the effects of other known antiviral agents on controlling HHV-6 reactivation using PBMCs with integrate HHV-6 genomes (iciHHV6) to mimic continuous low levels of HHV-6 infection. Ganciclovir, cidofovir and foscarnet are all small molecule inhibitors of HHV viral DNA polymerase. Artesunate is a small molecule antiviral agent targeting HHV immediate early genes. […] See e.g., hhv-6foundation.org/research/hhv-6-antiviral-drug-resistance; Reyman et al., 1995, Antiviral Res. 28:343-57; and Vittayawacharin et al., 2023, Transplant Cell Ther. 29:397. The cells were cultured in X-vivo supplemented media for three days before being split into 4 subcultures. Afterwards, cells were cultured for 15 additional days, with media exchange twice a week, each time containing a fresh dose of the same antiviral agent at the same initial concentration. Cell sampling was taken on different days after the antiviral agent was first added. The effect of the antiviral agent on the viability of cells were analyzed by using a cellular apoptosis screening kit (Thermo Cat #V13242),.

HHV-6 [2] = assay: HHV-6 U65 gene copies by qPCR in iciHHV6 PBMCs treated with antiviral agents; assay type: cell-based, Human herpesvirus 6; settings: 15 days culture, concentrations of Table 2
Excerpt: as §1
Next, HHV-6 replication was analyzed by detecting copies of HHV-6 gene U65 by qPCR.
(§2) Genomic DNA was extracted from cells and DNA levels of HHV-6 were determined by quantitative PCR (qPCR). The experiment was carried out using the ThermoFisher Scientific, TaqMan™ Fast Virus 1-Step Master Mix, (Catalog number: 4444434).

HHV-6 [3] = settings: in vitro anti-HHV-6 activity, literature; read-out: EC50 (Reyman 1995); cited from earlier work
HHV-6 [4] = assay: HHV-6 U31 viral DNA by qPCR in thawed CAR T drug product cultured with IFNα; assay type: cell-based, Human herpesvirus 6; settings: both lots of DP (Batch 1 HHV-6 high, Batch 2 low); IFNα 0.01, 1, 100 ng/mL; D1-D7
Excerpt: Drug product (DP) for experiment was selected based on the results of screening for HHV-6, among other adventitous agents, at the end of cell engineering process. Batch #1 was one of a few rare occurrences of DP with “positive” levels of HHV-6 and was chosen for the following studies (designated as the “HHV-6 high” group), while Batch #2 was chosen as the “low”-level counterpart. DP vials were retrieved from LN2, thawed and each split into 4 day 0 (D0) flasks. We first tested the effects of a type I IFN, such as IFNα, on the replication and infectivity of HHV-6. Flasks received either complete media (X-vivo +5% human serum (HS)+supplements) or complete media with added IFNα (human IFN-α2a at 100 ng/mL, 1 ng/mL and 0.01 ng/mL, Miltenyi). Cells were cultured for 7 additional days (D1-D7), with daily collections of cells from all conditions for freezing. Media was replaced every three days, with or without added IFNα for corresponding flasks.
Post-cell culture, DNA was extracted from the collected samples, and analyzed by qPCR for HHV-6 marker U31 as described in Material & Methods.
as §2

HHV-6 p41 = assay: Immunofluorescence of HHV-6 p41 protein in CAR T drug product culture; assay type: cell-based, Human herpesvirus 6
Experimental: To test whether HHV-6 protein expression is affected by IFNα treatment, we performed immunofluorescence using an antibody specific for HHV-6 p41, an HHV-6 early gene product, on cells collected from D4 of the Batch 1 (“HHV-6 high”) DP culture.
The cells were fixed with 4% paraformaldehyde and permeabilized using 0.5% saponin before incubating with HHV6 p41 antibody conjugated with Alexa-488 at 0.2 μg/mL. Cells were stained with DAPI prior to imaging at 20× magnification.

HHV-6B in CEM-HHV6 cells = assay: CEM-HHV6 latency/reactivation model, HHV-6 qPCR after sodium butyrate and PMA reactivation; assay type: cell-based, human herpesvirus 6B (strain Z-29)
Experimental: We next tested whether viral reactivation can be induced in the latency cell culture model. CEM-HHV6 cells (1×10^7) were reactivated using 100 ng/mL of PMA (phorbol-12-myristate-13-acetate, Cat #500582 Millipore-Sigma) and 1 mM NaButyrate (Cat #19-137, Millipore-Sigma) final concentration for 2 days at 37° C. On day 2 cells were washed and resuspended in RPMI+5% FBS and cultured for 18 days. Media was replenished as needed. CEM-HHV6 cells were collected on days 5, 8, 12, 14, 16, and 19 post-reactivation. HHV-6B viral reactivation was assessed by qPCR analysis of the vgDNA of HHV-6B targeting the U31 and U65-66 genes. Untreated CEM-HHV6 cells were used as a negative control.
The CEM-HHV6 reactivation model described in FIGS. 2A-F was utilized for testing the effects of IFNα in the cell culture model, similar to the testing carried out in DP (FIG. 1A). CEM-HHV6 cells were initially cultured in bulk before the start of the experiment. One day before the start of the experiment (D-1), an aliquot of the CEM-HHV6 cells was taken out and split before treatment with one of three IFNα concentrations (100 ng/mL, 1 ng/mL and 0.01 ng/mL), which constituted the “pre-treatment” of IFNα. Cells were collected from the beginning of the experiment (D0) and continuing every few days throughout. […]

HHV-6B (strain Z-29) [5] = assay: Small-scale CAR T process with HHV-6B infection, viral RNA (U79, U90, U100) by RT-qPCR; assay type: cell-based, human herpesvirus 6B (strain Z-29)
Excerpt: (§3) HHV-6 reactivation from PBMC is an extremely rare event in CAR T manufacturing based on existing data. To investigate the feasibility of using IFNα in controlling HHV-6 infectivity, we designed experiments to test the effects of IFNα in the manufacturing process by deliberately introducing active HHV-6 infection. In brief, the PBMCs from two different donors were thawed from frozen storage and cultured in complete media (5% HS+X-vivo+Supplements) for activation and LVV transduction. After electroporation of cells with TALEN mRNA, the T cells were infected with HHV-6B (strain Z-29) at MOI=0.4 for 3 hrs, then transferred to the G-Rex bioreactor for expansion for 10 days (Day 8 to Day 18). IFNα was added into the complete media at different concentrations (100 ng/mL, 10 ng/mL, 1 ng/mL and 0.1 ng/mL) on D8 after the 3 hrs of HHV-6 infection and kept in culture until the end of the expansion period. Cell samples were collected on D11, D13, D15 and D18, i.e., three, five, seven, and ten days post infection, to determine the HHV-6 virus infectivity by RT-qPCR assay (FIG. 4B), flow cytometry detection (FIG. 4C), and qPCR assay (FIG. 4D). […]
Total RNA was extracted from cells and analyzed using reverse transcription qPCR (RT-qPCR) assay for U79, U90, U100 and GAPDH genes to determine HHV-6 infectivity.

HHV-6 viral antigen p41 = assay: Small-scale CAR T process with HHV-6B infection, p41 viral antigen by flow cytometry; assay type: cell-based, human herpesvirus 6B (strain Z-29); settings: IFNα 0.1 ng/mL, D18, both donors
Excerpt: as §3
HHV6 infectivity was determined by intracellular staining using antibody against HHV-6 p41 protein at 1 μg/mL and FACS analysis was performed to determine the percent of cells expressing the viral protein.

HHV-6B (strain Z-29) [6] = assay: Small-scale CAR T process with HHV-6B infection, U31 DNA by qPCR; assay type: cell-based, human herpesvirus 6B (strain Z-29); settings: IFNα 0.1 ng/mL, process D18
Excerpt: as §3, with “4D). Description of RT-qPCR assay, flow cytometry, and genomic DNA qPCR assay are shown in Materials & Methods.” for “4D).”
Genomic DNA was extracted from cells and DNA levels of HHV-6 were determined by quantitative PCR (qPCR). […]

HHV-6 [7] = assay: Timing of IFNα addition before HHV-6 infection, U100 and U79 transcripts by RT-qPCR; assay type: cell-based, Human herpesvirus 6
Experimental: To mimic the rare reactivation event, PBMC-derived CAR T cells were infected with exogenous HHV-6 at an MOI of 0.4 on Day 8 of the small scale manufacturing process. Cells were treated with IFNα at a concentration of 1 ng/μL or 10 ng/μL on Day 0 (preactivation), Day 1 (activation), Day 4, or Day 6, or untreated throughout the process. All cultures were infected with HHV-6 on Day 8, regardless whether the cells were pre-treated with IFNα or left untreated.
The effects of IFNα on HHV-6 infection were analyzed in cells from two different donors. The transcripts of viral genes U100 (FIGS. 6A and 7A) and U79 (FIGS. 6B and 7B) were analyzed by RT-qPCR at the time points of three, seven and ten days post infection (i.e., on Day 11, Day 15 and Day 18 of the small scale manufacturing process). The y-axis reprepresents relative-fold change for each value compared to the endogenous GAPDH as well as untreated donor RNA (Day 0 before IFNα treatment).

HHV-6 [8] = assay: Timing of IFNα addition before HHV-6 infection, viral DNA by qPCR; assay type: cell-based, Human herpesvirus 6; settings: data not shown
CAR T cells [9] = test system: CAR T cells
CAR T cells [10] = assay: CAR T cell expansion, % CAR+ and phenotype under IFNα in the HHV-6 infection model; settings: IFNα 0.1 ng/mL to 10 ng/mL, added Day 8 to Day 18

## C[C@H]1[C@H](OC(=O)CCC(=O)O)O[C@@H]2O[C@@]3(C)CC[C@H]4[C@H](C)CC[C@@H]1[C@@]24OO3 [Artesunate]
[1]
  cell health / apoptosis: induced higher level of apoptosis
HHV-6 [2]
  HHV-6 levels (U65 gene copies by qPCR): increased HHV-6 levels over the culture period
HHV-6 [3]
  EC50: 3.8 µM

## Nc1ccn(C[C@@H](CO)OCP(=O)(O)O)c(=O)n1 [Cidofovir, cidofovir]
[1]
  cell health / apoptosis: induced higher level of apoptosis
HHV-6 [2]
  HHV-6 levels (U65 gene copies by qPCR): increased HHV-6 levels over the culture period
HHV-6 [3]
  EC50: 12 to 15 µM

## O=C(O)P(=O)(O)O [Foscarnet, foscarnet]
[1]
  cell health / apoptosis: did not negatively affect cell health
HHV-6 [2]
  HHV-6 levels (U65 gene copies by qPCR): maintain the HHV-6 levels at around their starting level
HHV-6 [3]
  EC50: 8.4 µM

## Nc1nc2c(ncn2COC(CO)CO)c(=O)[nH]1 [Ganciclovir, ganciclovir]
[1]
  cell health / apoptosis: did not negatively affect cell health
HHV-6 [2]
  HHV-6 levels (U65 gene copies by qPCR): decreased viral load initially followed by an increase at later time points
HHV-6 [3]
  EC50: > 25 µM

## IFNα: human IFN-α2a (Miltenyi), a type I IFN; exemplary sequence SEQ ID NO: 19/20
HHV-6 [4]
  HHV-6 viral DNA (U31) fold-change relative to D0: reduction in the viral load compared to the control
HHV-6 p41; Batch 1 (HHV-6 high) DP culture, D4, increasing concentration of IFNα
  cells positive for HHV-6 p41 (immunofluorescence): fewer cells positive for HHV-6 p41
HHV-6 p41; batch 2 (HHV-6 low) culture, D4, regardless of concentration used, data not shown
  cells positive for HHV-6 p41 (immunofluorescence): no detectable HHV-6 p41 positive cells
HHV-6B in CEM-HHV6 cells; IFNα 100 ng/mL
  viral DNA, reactivated (RA) versus non-reactivated (NRA) samples: virtually no distinction between the NRA and the RA samples
HHV-6B in CEM-HHV6 cells; as the IFNα dosage increased (0.01, 1, 100 ng/mL), pre- or post-treatment
  level of viral growth (HHV-6 DNA qPCR): the level of viral growth was reduced
HHV-6B (strain Z-29) [5]; IFNα 10 ng/mL, D18
  HHV-6 viral RNA: below detectable levels
HHV-6B (strain Z-29) [5]; donor #1, lowest concentration of IFNα, D11 to D18
  HHV-6 RNA levels (U79, U90, U100): decreased from D11 to D18
HHV-6 viral antigen p41
  HHV-6 viral antigen p41 expression: effectively reduced
HHV-6B (strain Z-29) [6]
  decrease of HHV-6 DNA levels (U31): 16 to 38 fold
HHV-6 [7]; IFNα added on Day 4 or Day 6 (samples C5-C8)
  U79 transcript: decreased transcript
HHV-6 [7]; IFNα added on Day 6 (conditions C7, C8; 10 and 1 ng/μL), infection Day 8, compared to C9
  U100 transcript level: greatest reduction of U100 transcript level
HHV-6 [8]; IFNα added on Day 6 (C7, C8)
  viral load as determined by qPCR: lowest level of viral load
HHV-6 [8]; doses of IFNα added closer to infection
  suppression of HHV-6 infection (U31 DNA qPCR): strongest suppression effect
CAR T cells [9]
  proliferation of CAR-T cells: could suppress the proliferation
CAR T cells [10]
  fold of CAR T cell expansion: did not significantly affect
